Measurements published in patent US20230149362A1, “NEW CAPSULE COMPOSITION FOR PERORAL ADMINISTRATION” (Vicore Pharma AB, priority 2020, published 2023).
Values after ≈ are worked out from the molar mass of the structure shown. Read-outs that look alike come from different tables or passages of the source.

What was measured:
[1] = Solubility of free C21 in aqueous vehicles (saturated solutions, HPLC); format: physicochemical; conditions: for solubility at 48 h: thermodynamic from solid, read-out: Concentration (solubility)
Text: Vehicles (with sources) were as follows: sodium chloride (Sigma), ethanol (99.5%, Kemetyl), polyethylene glycols (BASF), phosphate buffered saline (PBS) pH 7.4 (Sigma), buffer solution pH 2.00 (citric acid, sodium hydroxide, hydrogen chloride), buffer solution pH 4.00 (citric acid, sodium hydroxide), buffer solution pH 6.00 (citric acid, sodium hydroxide), buffer solution pH 8.00 (boric acid, sodium hydroxide, hydrogen chloride) and buffer solution pH 10.00 (boric acid, sodium hydroxide, hydrogen chloride) (all Merck), and purified water (Elga Option 4 water purifier).
Saturated solutions of free C21 (obtained from Syntagon AB, Södertälje, Sweden) were prepared in duplicates. The samples were kept magnetically stirred for 48 hours prior to analysis. For some samples, the added substance was dissolved and more was thereafter added to obtain saturated solutions.
After 48 hours, pH was measured and thereafter 1 mL of solution was withdrawn. Undissolved substance was removed by centrifugation (1500 rpm, 30 minutes). The supernatant was diluted 10 to 500 times with acetonitrile/H2O, 30:70.
C21 content was measured by HPLC.

[2] = Stability of aqueous solutions of C21 under four storage conditions (sensitivity to light); format: physicochemical; conditions: for Amount of Free C21, % of initial / Solution pH: 1 mg/mL in 0.9% NaCl
Protocol: The stability of free C21 in 0.9% NaCl pH 9.4 was investigated.
Solutions of 1 mg/mL of C21 were studied for four weeks under four different storage conditions. The solution was filtered through a 0.22 sterile syringe filter to minimize bacterial growth during the stability test. The samples were analysed by HPLC for purity.
The results are summarised in Table 3 below, in which the amount of C21 is given as a percentage of the initial amount of drug. Solution pHs were also measured and are shown within parenthesis in Table 3.
The stability of the sodium salt of C21 was also investigated under the same storage conditions.
At the time for analysis of the one week samples, it was noted that the heating cabinet for storage of samples at 40° C. was broken. In view of this, these samples were thereafter kept at room temperature for three days.

- solubility at 48 h ([1]; 0.9% NaCl, pH 7.3, saline or isotonic, vehicle 0.9% NaCl, pH 7.3): 120 µg/mL (≈ 252 µM)
- solubility at 48 h ([1]; 0.9% NaCl, pH 8.3, saline or isotonic, vehicle 0.9% NaCl, pH 8.3 adjusted by NaOH, one sample): 1580 µg/mL (≈ 3320 µM)
- solubility at 48 h ([1]; 0.9% NaCl, pH 9.7, saline or isotonic, vehicle 0.9% NaCl, pH 9.7 adjusted by NaOH): 27400 µg/mL (≈ 57600 µM)
- solubility at 48 h ([1]; 0.9% NaCl/EtOH 95:5 v/v, pH 7.9, aqueous with cosolvent or surfactant or cyclodextrin, vehicle 0.9% NaCl/EtOH 95:5 v/v, pH 7.9, one sample): 570 µg/mL (≈ 1200 µM)
- solubility at 48 h ([1]; PBS pH 7.4, pH 7.7, aqueous buffer, vehicle Buffer/PBS pH 7.4, measured pH 7.7): 240 µg/mL (≈ 505 µM)
- solubility at 48 h ([1]; PEG/EtOH/H2O (40:10:50), pH 6.1, aqueous with cosolvent or surfactant or cyclodextrin, vehicle PEG/EtOH/H2O (40:10:50), pH 6.1): 830 µg/mL (≈ 1750 µM)
- solubility at 48 h ([1]; PEG/H2O (25:75), pH 5.5, aqueous with cosolvent or surfactant or cyclodextrin, vehicle PEG/H2O (25:75), pH 5.5): 170 µg/mL (≈ 357 µM)
- solubility at 48 h ([1]; PEG/H2O (50:50), pH 6.2, aqueous with cosolvent or surfactant or cyclodextrin, vehicle PEG/H2O (50:50), pH 6.2): 610 µg/mL (≈ 1280 µM)
- solubility at 48 h ([1]; PG/EtOH/H2O (40:10:50), pH 6.3, aqueous with cosolvent or surfactant or cyclodextrin, vehicle PG/EtOH/H2O (40:10:50), pH 6.3): 790 µg/mL (≈ 1660 µM)
- solubility at 48 h ([1]; PG/H2O (10:90), pH 7.5, aqueous with cosolvent or surfactant or cyclodextrin, vehicle PG/H2O (10:90), pH 7.5): 220 µg/mL (≈ 463 µM)
- solubility at 48 h ([1]; PG/H2O (25:75), pH 6.9, aqueous with cosolvent or surfactant or cyclodextrin, vehicle PG/H2O (25:75), pH 6.9): 300 µg/mL (≈ 631 µM)
- solubility at 48 h ([1]; boric acid buffer pH 8.0, pH 7.9, aqueous buffer, vehicle Buffer/Boric acid pH 8.0, measured pH 7.9): 500 µg/mL (≈ 1050 µM)
- solubility at 48 h ([1]; boric acid buffer pH 10.0, pH 8.7, aqueous buffer, vehicle Buffer/Boric acid pH 10.0, measured pH 8.7): 19100 µg/mL (≈ 40200 µM)
- solubility at 48 h ([1]; citric acid buffer pH 2.0, pH 2.3, aqueous buffer, vehicle Buffer/Citric acid pH 2.0, measured pH 2.3): 3950 µg/mL (≈ 8300 µM)
- solubility at 48 h ([1]; citric acid buffer pH 4.0, pH 4, aqueous buffer, vehicle Buffer/Citric acid pH 4.0, measured pH 4.0): 80 µg/mL (≈ 168 µM)
- solubility at 48 h ([1]; citric acid buffer pH 6.0, pH 6, aqueous buffer, vehicle Buffer/Citric acid pH 6.0, measured pH 6.0): 60 µg/mL (≈ 126 µM)
- Concentration (solubility) ([1]; vehicle Buffer/Boric acid pH 10.0, measured pH 8.7): 19900 µg/mL
- solubility at 48 h ([1]; water, pH 7.3, water, vehicle H2O, pH 7.3, stirred 48 hours): 150 µg/mL (≈ 315 µM)
- Amount of Free C21, % of initial ([2]; 5° C., dark, 1 week): 101 % of initial
- Solution pH ([2]; 5° C., dark, 1 week): (9.2)
- Amount of Free C21, % of initial ([2]; 5° C., dark, 2 weeks): 107 % of initial
- Solution pH ([2]; 5° C., dark, 2 weeks): (9.2)
- Amount of Free C21, % of initial ([2]; 5° C., dark, 3 weeks): 108 % of initial
- Solution pH ([2]; 5° C., dark, 3 weeks): (9.1)
- Amount of Free C21, % of initial ([2]; 5° C., dark, 4 weeks): 108 % of initial
- Solution pH ([2]; 5° C., dark, 4 weeks): (9.2)
- Amount of Free C21, % of initial ([2]; 5° C., dark, Initial): 100 % of initial
- Solution pH ([2]; 5° C., dark, Initial): (9.4)
- Amount of Free C21, % of initial ([2]; 40° C., dark, 1 week): 101 % of initial
- Solution pH ([2]; 40° C., dark, 1 week): (9.0)
- Amount of Free C21, % of initial ([2]; 40° C., dark, 2 weeks): 111 % of initial
- Solution pH ([2]; 40° C., dark, 2 weeks): (8.6)
- Amount of Free C21, % of initial ([2]; 40° C., dark, 3 weeks): 106 % of initial
- Solution pH ([2]; 40° C., dark, 3 weeks): (8.7)
- Amount of Free C21, % of initial ([2]; 40° C., dark, 4 weeks): 107 % of initial
- Solution pH ([2]; 40° C., dark, 4 weeks): (8.7)
- Amount of Free C21, % of initial ([2]; 40° C., dark, Initial): 100 % of initial
- Solution pH ([2]; 40° C., dark, Initial): (9.4)
- Amount of Free C21, % of initial ([2]; RT, dark, 1 week): 97 % of initial
- Solution pH ([2]; RT, dark, 1 week): (9.2)
- Amount of Free C21, % of initial ([2]; RT, dark, 2 weeks): 109 % of initial
- Solution pH ([2]; RT, dark, 2 weeks): (8.9)
- Amount of Free C21, % of initial ([2]; RT, dark, 3 weeks): 105 % of initial
- Solution pH ([2]; RT, dark, 3 weeks): (9.0)
- Amount of Free C21, % of initial ([2]; RT, dark, 4 weeks): 106 % of initial
- Solution pH ([2]; RT, dark, 4 weeks): (8.9)
- Amount of Free C21, % of initial ([2]; RT, dark, Initial): 100 % of initial
- Solution pH ([2]; RT, dark, Initial): (9.4)
- Amount of Free C21, % of initial ([2]; RT, light, 1 week): 96 % of initial
- Solution pH ([2]; RT, light, 1 week): (9.0)
- Solution pH ([2]; RT, light, 2 weeks): (8.0)
- Amount of Free C21, % of initial ([2]; RT, light, 2 weeks, precipitation, filtered): 44 % of initial
- Amount of Free C21, % of initial ([2]; RT, light, 3 weeks): 96 % of initial
- Solution pH ([2]; RT, light, 3 weeks): (8.5)
- Solution pH ([2]; RT, light, 4 weeks): (7.7)
- Amount of Free C21, % of initial ([2]; RT, light, 4 weeks, precipitation, filtered): 13 % of initial
- Amount of Free C21, % of initial ([2]; RT, light, Initial): 100 % of initial
- Solution pH ([2]; RT, light, Initial): (9.4)
- total impurity peak area ([2]; samples stored at 5° C., RT/dark and 40° C.): around 2.5 area% of C21 peak area
- chemical stability in aqueous solution ([2]; stored in dark at 5° C., RT and 40° C., four weeks): chemically stable
SMILES: CCCCOC(=O)NS(=O)(=O)c1sc(CC(C)C)cc1-c1ccc(Cn2ccnc2)cc1 [free C21, N-butyloxycarbonyl-3-(4-imidazol-1-ylmethylphenyl)-5-iso-butylthiophene-2-sulfonamide]
